Test results reported in PubChem BioAssay (NCI).
“And” between values parts separate entries of the source, which are not always exact repeats. Equal entries are not always repeated.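 Each compound was tested at five concentrations against cells in 96-well plates for 48 hours. Here, GI50 denotes the concentration required for 50% inhibition of growth. TGI denotes the concentration required for complete inhibition of growth.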

How the values were obtained:
Test in all cases: growth of human tumour cells (NCI), 48 h
A549 NSCLC = system: A549 NSCLC
CCRF-CEM leukemia = system: CCRF-CEM leukemia
HCC-2998 colon = system: HCC-2998 colon
IGROV1 ovarian = system: IGROV1 ovarian
KM12 colon = system: KM12 colon
MOLT-4 leukemia = system: MOLT-4 leukemia
OVCAR-5 ovarian = system: OVCAR-5 ovarian
SF-295 CNS = system: SF-295 CNS
SK-OV-3 ovarian = system: SK-OV-3 ovarian
SN12C renal = system: SN12C renal

Structure (SMILES)	GI50 (A549 NSCLC)	TGI (A549 NSCLC)	GI50 (CCRF-CEM leukemia)	TGI (CCRF-CEM leukemia)	GI50 (HCC-2998 colon)	TGI (HCC-2998 colon)	GI50 (IGROV1 ovarian)	TGI (IGROV1 ovarian)	GI50 (KM12 colon)	TGI (KM12 colon)	GI50 (MOLT-4 leukemia)	TGI (MOLT-4 leukemia)	GI50 (OVCAR-5 ovarian)	TGI (OVCAR-5 ovarian)	GI50 (SF-295 CNS)	TGI (SF-295 CNS)	GI50 (SK-OV-3 ovarian)	TGI (SK-OV-3 ovarian)	GI50 (SN12C renal)	TGI (SN12C renal)
CN(C)c1ccc(O)c2c1C[C@H]1C[C@H]3[C@H](N(C)C)C(=O)C(C(N)=O)=C(O)[C@@]3(O)C(=O)C1=C2O	5.65 µM	> 100 µM	6.27 µM	65.9 µM	4.19 µM	17.8 µM	3.42 µM	27.8 µM	6.29 µM	27.4 µM	10.7 µM	40.6 µM	15.5 µM	88.8 µM	2.46 µM	7.99 µM	3.92 µM	> 100 µM	4.8 µM	> 100 µM
COc1cc(/C=C2/C(=O)NC(Cc3cc(OC)c(OC)c(C)c3OC)C(=O)N2Cc2ccccc2)c(OC)c(C)c1OC (stereo not drawn)	–	> 100 µM	–	> 100 µM	–	> 100 µM	–	> 100 µM	–	> 100 µM	–	70.5 µM	–	> 100 µM	–	> 100 µM	–	> 100 µM	–	> 100 µM
COCCNC(=O)c1ccc(-c2nc3ccc4[nH]ncc4c3c3c2CCCC3)cc1	2.13 µM	> 100 µM	2.44 µM	16.6 µM	2.98 µM	> 100 µM	1.24 µM	10.9 µM	0.741 µM	42.5 µM	1.61 µM	5.62 µM	6.05 µM	> 100 µM	2.7 µM	47.7 µM	0.905 µM	5.59 µM	2.61 µM	91.7 µM
CCOc1ccccc1NC(=O)C1=C(C)NC(C)=C(C(=O)Nc2ccccc2OCC)C1c1ccc(NC(C)=O)cc1	–	> 100 µM	–	> 100 µM	–	35.7 µM	–	> 100 µM	–	> 100 µM	–	> 100 µM	–	> 100 µM	–	71.5 µM	–	67.5 µM	–	> 100 µM
COc1cc(/C=C/C(=O)c2c(C)n([O-])c3ccc(Cl)cc3[n+]2=O)cc(OC)c1OC	59.8 µM	> 100 µM	> 100 µM	> 100 µM	> 100 µM	> 100 µM	35.4 µM	> 100 µM	> 100 µM	> 100 µM	> 100 µM	> 100 µM	> 100 µM	> 100 µM	35 µM	> 100 µM	34.6 µM	> 100 µM	67.6 µM	> 100 µM
[C-]#[N+]C(C)(C)C[C@H]1CC(C)C2CCC(C)C3([N+]#[C-])CCC(=C)C1[C@H]23 (stereo partly drawn)	–	21.7 µM	–	> 50 µM	–	14.7 µM	–	47.4 µM	–	11.8 µM	–	5.25 µM	–	8.49 µM	–	24.1 µM	–	45.3 µM	–	8.85 µM
CS/C(c1ccccc1)=[N+](/C)[O-]	–	> 100 µM	–	> 81.8 µM	–	> 100 µM	–	> 100 µM	–	> 100 µM	–	> 100 µM	–	> 100 µM	–	> 100 µM	–	> 100 µM	–	> 100 µM
Cc1ccc(N2C(=O)/C(=C/c3ccc(N(CCC#N)CCC#N)cc3C)N=C2c2cc([N+](=O)[O-])ccc2Cl)cc1	–	> 100 µM	–	> 100 µM	–	> 100 µM	–	> 100 µM	–	> 100 µM	–	> 100 µM	–	> 100 µM	–	> 100 µM	–	> 100 µM	–	> 100 µM
O=C(/C=C/c1ccc(C(F)(F)F)cc1)c1ccc(Nc2nc(NCCO)nc(N3CCOCC3)n2)cc1	2.74 µM	> 100 µM	2.41 µM	6.61 µM	2.34 µM	5.7 µM	2 µM	4.42 µM	1.8 µM	3.3 µM	2.45 µM	9.05 µM	1.74 µM	3.97 µM	2.67 µM	7.6 µM	3.82 µM	> 100 µM	2.22 µM	5.69 µM
CCCCCN(CCCCC)CC(O)c1cc2c(c3ccccc13)CCCC2 (stereo not drawn)	9.87 µM and 12.3 µM	22.8 µM and 29.7 µM	5.55 µM and 9.21 µM	22.5 µM and 91.7 µM	2.54 µM and 4.28 µM	5.99 µM and 15.6 µM	3.5 µM and 6.44 µM	17.3 µM and 33.3 µM	3.34 µM and 6.95 µM	12.3 µM and 21.5 µM	2.95 µM and 26.4 µM	13 µM and > 100 µM	11.1 µM and 13.5 µM	23.6 µM and 31.5 µM	2.38 µM and 6.82 µM	11.4 µM and 29.8 µM	12.4 µM and 17 µM	24.9 µM and 34.8 µM	6.12 µM and 13.8 µM	19.8 µM and 30 µM
O=C1C[C@@H]2CCCC[C@@H]2C12SCCS2	–	> 100 µM	–	> 100 µM	–	> 100 µM	–	> 100 µM	–	> 100 µM	–	> 100 µM	–	> 100 µM	–	> 100 µM	–	> 100 µM	–	> 100 µM
COC(=O)[C@@H](C)C[C@H](Cc1ccccc1)NC(=O)c1csc([C@@H](C[C@H](C(C)C)N(C)C(=O)C2(NC(=O)[C@H]3CCCCN3C)CC2)OC(C)=O)n1	–	> 33.3 µM	0.00531 µM and 0.00333 µM	> 33.3 µM	0.00849 µM and 0.00333 µM	> 33.3 µM	0.00147 µM and 0.00333 µM	> 33.3 µM	0.00655 µM and 0.00333 µM	> 33.3 µM	0.00965 µM and 0.00333 µM	> 33.3 µM	–	> 33.3 µM	0.0251 µM and 0.00333 µM	> 33.3 µM	0.0183 µM and < 0.00333 µM	< 0.00333 µM	0.0156 µM and 0.00333 µM	> 33.3 µM
